We go through 2 molecules from patent US10036068B1, “Diagnosis, prognosis, and treatment of myocardial infarction” (Vanderbilt University, priority 2012, dated 2018).

SMILES strings stand for the structures.

Holding throughout (type): cell-based
Assay [1] relates to human platelet. Nature of the assay: PGE2 effect on human platelet aggregation and dense granule release, light transmission aggregometry. The text has this:
(§1) This Examples describes a study conducted to characterize the regulation of thromboxane-dependent human platelet activation by PGE2, and particularly nanomolar concentrations of PGE2. Platelets were collected from individuals and studied by light transmission aggregometry. Next, it was observed how low nanomolar concentrations of PGE2 effect aggregation and dense granule release induced by sub-maximal concentrations of an agonist of the thromboxane receptor (U46,619), thrombin, collagen, and ADP.

The test system of assay [2] is human platelet. The description is as above. Conditions: agonist concentrations producing full activation of the platelets (max); even micromolar PGE2; FIG. 1.
Another assay has as its target T1, thromboxane receptor (Homo sapiens, UniProt P21731).
T1 construct: Platelets were collected from individuals and studied by light transmission aggregometry; endogenous in cells; host or cells: human platelets from responder and non-responder individuals
T1 sequence (P21731 1-343): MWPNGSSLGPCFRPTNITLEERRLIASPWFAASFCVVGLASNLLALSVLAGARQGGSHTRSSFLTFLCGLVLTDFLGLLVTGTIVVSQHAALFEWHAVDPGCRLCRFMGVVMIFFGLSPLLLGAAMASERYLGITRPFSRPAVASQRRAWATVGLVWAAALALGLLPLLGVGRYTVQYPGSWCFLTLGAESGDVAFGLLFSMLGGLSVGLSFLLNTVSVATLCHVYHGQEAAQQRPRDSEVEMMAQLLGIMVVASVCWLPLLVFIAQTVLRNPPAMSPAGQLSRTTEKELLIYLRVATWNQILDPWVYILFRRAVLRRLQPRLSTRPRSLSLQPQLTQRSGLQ
As to the kind of experiment: U46,619 dose-response (aggregation, ATP release) in responder and non-responder samples. Conditions: responders vs non-responders; FIG. 4.
Description: FIG. 4 includes plots of maximal aggregation (left) and ATP release (right) as a function of U46,610 concentration for both responder and non-responder individuals, and showing that there is little to no difference in U46,619 dose-response between the different phenotypic groups.
as §1
Samples from responders and non-responders were also exposed to different doses of U46,619.

Consider `CCCCC[C@H](O)/C=C/[C@H]1[C@H](O)CC(=O)[C@@H]1C/C=C\CCCC(=O)O` [PGE2, prostaglandin E2], for which, in the assay on human platelet [1] (76 individuals, FIG. 2), the “individuals with strong inhibition of platelet activity in response to PGE2” value is reported as “approximately 28%”, the “individuals without significant inhibition of platelet aggregation in response to PGE2 (non-responders)” value came out at 55% and the “partial responders to PGE2” value was found to be 17%. Further, in the assay on human platelet [1] (FIG. 5), the “effect on ADP-induced aggregation” value is given as “no effect”, the “effect on U46,610 aggregation” value is given as “did have an effect” and the “effect on collagen-induced aggregation” value is given as “no effect”. Besides, in the assay with human platelet [1] (nanomolar PGE2), the “individuals in whom PGE2 affected the timing but not the final magnitude of aggregation (partial responders)” value is listed as “approximately 31%” and the “individuals in whom PGE2 did not have detectable effects (nonresponders)” value is recorded as “approximately 42%”. In addition, in the assay on human platelet [1] (nanomolar PGE2, aggregation induced by U46,619 and PAR4-AP), the “individuals in whom PGE2 inhibits platelet aggregation (responders)” value is reported as “approximately 26%”. Moreover, the “aggregation and dense granule release induced by sub-maximal U46,619 and thrombin” value with human platelet [1] (nanomolar PGE2, responder populations, FIG. 3) is “capable of preventing aggregation and dense granule release”. For the same molecule, in the assay with human platelet [2], the “effect on aggregation or granule release” value is reported as “did not affect either aggregation or granule release”.
With `CCCCC[C@H](O)/C=C/[C@@H]1[C@@H](C/C=C\CCCC(=O)O)[C@H]2CO[C@@H]1C2` [U46,619], on thromboxane receptor, the “difference in U46,619 dose-response between phenotypic groups” value is recorded as “No significant no difference”.
